Results taken from US8686143B2, “Compounds useful as inhibitors of Janus kinases” (Vertex Pharmaceuticals Incorporated, priority 2007, dated 2014).

Molecular target: T1, JAK3 (Homo sapiens, UniProt P52333)
T1 sequence (P52333 1-1124): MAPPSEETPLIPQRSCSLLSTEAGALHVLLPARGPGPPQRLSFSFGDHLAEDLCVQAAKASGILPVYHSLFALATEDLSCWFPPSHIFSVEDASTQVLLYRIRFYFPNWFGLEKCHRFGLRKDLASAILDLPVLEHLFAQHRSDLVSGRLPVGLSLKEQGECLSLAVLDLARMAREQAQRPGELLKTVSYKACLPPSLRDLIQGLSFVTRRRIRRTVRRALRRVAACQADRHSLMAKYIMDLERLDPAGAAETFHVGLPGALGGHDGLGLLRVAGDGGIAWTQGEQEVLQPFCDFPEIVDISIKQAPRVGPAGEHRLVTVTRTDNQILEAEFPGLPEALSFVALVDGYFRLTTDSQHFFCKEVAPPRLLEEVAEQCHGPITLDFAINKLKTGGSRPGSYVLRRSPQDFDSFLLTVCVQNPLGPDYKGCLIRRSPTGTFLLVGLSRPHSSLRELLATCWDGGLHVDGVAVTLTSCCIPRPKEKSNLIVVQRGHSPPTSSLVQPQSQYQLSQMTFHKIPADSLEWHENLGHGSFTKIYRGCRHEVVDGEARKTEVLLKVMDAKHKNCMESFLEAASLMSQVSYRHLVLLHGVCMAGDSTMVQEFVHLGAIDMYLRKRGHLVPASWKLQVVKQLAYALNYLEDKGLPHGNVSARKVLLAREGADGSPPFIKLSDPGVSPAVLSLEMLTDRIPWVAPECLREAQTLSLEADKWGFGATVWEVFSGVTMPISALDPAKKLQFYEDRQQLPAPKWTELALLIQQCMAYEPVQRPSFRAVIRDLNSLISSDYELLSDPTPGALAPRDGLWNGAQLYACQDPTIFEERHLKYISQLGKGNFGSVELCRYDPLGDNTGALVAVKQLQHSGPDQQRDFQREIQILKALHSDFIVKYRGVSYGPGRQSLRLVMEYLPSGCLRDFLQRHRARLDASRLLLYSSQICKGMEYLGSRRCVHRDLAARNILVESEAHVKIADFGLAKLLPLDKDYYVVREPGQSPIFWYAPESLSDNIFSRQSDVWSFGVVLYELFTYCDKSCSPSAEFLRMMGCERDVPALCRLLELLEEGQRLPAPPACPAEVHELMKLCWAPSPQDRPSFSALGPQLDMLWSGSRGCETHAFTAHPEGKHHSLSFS
Test: JAK3 Inhibition Assay (33P incorporation into poly(Glu)4Tyr)
Type: biochemical
Details: for Ki: 1 nM JAK3, 5 μM ATP, 1 μM poly(Glu)4Tyr, 25° C.
How it was run: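 Run at 25°C for 20 min with 1 nM enzyme in pH 7.4 HEPES buffer with MgCl2, DTT, NaCl and BSA. Final substrates were 5 μM ATP (33P-labelled) and 1 μM poly(Glu)4Tyr. Stopped with TCA, filtered, and 33P incorporation counted by scintillation.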

| inhibition of JAK3 at concentrations of 50 μM (at concentrations of 50 μM) | Ki | SMILES |
| --- | --- | --- |
| did not inhibit | – | CC(C)[C@@H](Nc1nc(-c2ccc3c(c2)OCCO3)ncc1F)C(=O)NCC(F)(F)F [Compound 166] |
| – | 1 to 10 µM | CC(C)[C@@H](Nc1ccnc(-c2ccc(O)cc2)n1)C(=O)NCC(F)(F)F [Compound 167] |
| – | 1 to 10 µM | CC(C)[C@@H](Nc1nc(-c2ccc3nccnc3c2)ncc1F)C(=O)NCC(F)(F)F [Compound 168] |
